Marks after values point to notes of the source that are not given here.
Tests used:
[1] = tested on: Panc-1 human pancreatic cancer; assay: Panc-1 human pancreatic cancer xenografts in nude mice; format: in vivo; conditions: 10 μg/day s.c. for 36 days
Experimental: Panc-1 cancers were transplanted s.c. into both flank areas of 60 female nude mice, and allowed to grow for 105 days before starting the treatment with GH-RH antagonists. The mice were randomly assigned into 3 experimental groups with 8 animals in each group and received single daily injections for 36 days as follows: 1. Control (vehicle solution); 2. JMR-132 (10 μg/day s.c.); 3. Peptide 11457 (10 μg/day s.c.). Tumor volumes were measured once a week. The experiment was ended on day 82 by sacrificing the mice under Isoflurane anesthesia. Resulting tumors were cleaned, weighed, and snap-frozen until further analyses. Statistical analyses of the measurement results were done by two-tailed t-test, p<0.05 being considered significant. Data are presented as the means±S.E.

[2] = tested on: PC-3 human hormone-independent prostate cancer; assay: PC-3 human prostate cancer xenografts in nude mice, Experiment 3; format: in vivo; conditions: 2 μg/day s.c., 28 days
Experimental: Male nude mice were implanted s.c. with 3 mm^3 pieces of PC-3 human hormone-independent prostate cancer tissue on both flanks. When tumors reached a volume of approximately 50 mm^3, the mice were divided into 12 experimental groups with 8 to 10 animals in each group and received single daily injections for 28 days as follows: 1. Control (vehicle solution); 2. JMR-132 (10 μg/day s.c.); 3. Peptide 11113 (2 μg/day s.c.); 4. Peptide 11119 (2 μg/day s.c.); 5. Peptide 11209 (2 μg/day s.c.); 6. Peptide 11313 (2 μg/day s.c.); 7. Peptide 11408 (2 μg/day s.c.); 8. Peptide 11435 (2 μg/day s.c.); 9. Peptide 11457 (2 μg/day s.c.); 10. Peptide 11459 (2 μg/day s.c.); 11. Peptide 11469 (2 μg/day s.c.); 12. Peptide 11491 (2 μg/day s.c.).
Tumor volumes were measured once a week. The experiment was ended on day 28 by sacrificing the mice under Isoflurane anesthesia. Resulting tumors were cleaned, weighed, and snap-frozen until further analyses. Statistical analyses of the measurement results were done by two-tailed t-test, p<0.05 being considered significant.

[3] = biological target: T1, pituitary receptors (Homo sapiens, UniProt Q02643); conditions: biological activity on the pituitary; cited from earlier work
T1 construct: host or cells: pituitary
T1 sequence (Q02643 23-423): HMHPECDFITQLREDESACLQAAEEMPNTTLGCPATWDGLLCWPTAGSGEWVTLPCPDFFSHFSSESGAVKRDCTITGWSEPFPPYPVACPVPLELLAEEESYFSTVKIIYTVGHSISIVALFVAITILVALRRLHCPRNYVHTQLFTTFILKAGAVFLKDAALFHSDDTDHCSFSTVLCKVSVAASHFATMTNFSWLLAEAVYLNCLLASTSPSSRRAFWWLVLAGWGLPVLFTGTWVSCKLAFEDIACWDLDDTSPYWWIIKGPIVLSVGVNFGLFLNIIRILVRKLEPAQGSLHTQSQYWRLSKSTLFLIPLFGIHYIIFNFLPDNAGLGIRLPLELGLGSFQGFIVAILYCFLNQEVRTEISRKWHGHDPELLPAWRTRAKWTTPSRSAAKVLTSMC

[4] = tested on: H-460 human non-small cell lung cancer; assay: H-460 human non-SCLC xenografts in nude mice, Experiment 2; format: in vivo; conditions: 5 μg/day s.c.; for Tumor growth after 4 weeks (%): means±S.E.; for Inhibition (%): after 4 weeks
Experimental: (§1) Male nude mice were implanted s.c. with 3 mm^3 pieces of H-460 human non-SCLC tumor tissue on both flanks. When tumors had grown to a mean volume of approximately 90 mm^3, the mice were randomly assigned into 12 experimental groups with 8 to 10 animals in each group and received single daily injections for 28 days as follows: 1. Control (vehicle solution); 2. JMR-132 (10 μg/day s.c.); 3. Peptide 11109 (5 μg/day s.c.); 4. Peptide 11113 (5 μg/day s.c.); 5. Peptide 11119 (5 μg/day s.c.); 6. Peptide 11209 (5 μg/day s.c.); 7. Peptide 11313 (5 μg/day s.c.); 8. Peptide 11408 (5 μg/day s.c.); 9. Peptide 11435 (5 μg/day s.c.); 10. Peptide 11459 (5 μg/day s.c.); 11. Peptide 11469 (5 μg/day s.c.); 12. Peptide 11491 (5 μg/day s.c.). Tumor volumes were measured once a week. The experiment was ended on day 28 by sacrificing the mice under Isoflurane anesthesia. Resulting tumors were cleaned, weighed, and snap-frozen until further analyses. Statistical analyses of the measurement results were done by two-tailed t-test, p<0.05 being considered significant. Data are presented as the means±S.E.

[5] = tested on: H-460 human non-small cell lung cancer; assay: H-460 human non-SCLC xenografts in nude mice, Experiment 1; format: in vivo; conditions: 10 μg/day s.c., 28 days; means±S.E.
Experimental: as §1, with “4” for “12”, “with” for “with 8 to”, “1109 (10” for “11109 (5”, “11111 (10” for “11113 (5 μg/day s.c.); 5. Peptide 11119 (5 μg/day s.c.); 6. Peptide 11209 (5 μg/day s.c.); 7. Peptide 11313 (5 μg/day s.c.); 8. Peptide 11408 (5 μg/day s.c.); 9. Peptide 11435 (5 μg/day s.c.); 10. Peptide 11459 (5 μg/day s.c.); 11. Peptide 11469 (5 μg/day s.c.); 12. Peptide 11491 (5”

[6] = tested on: PC-3 human hormone-independent prostate cancer; assay: PC-3 human prostate cancer xenografts in nude mice, Experiment 1; format: in vivo; conditions: 10 μg/day s.c., daily for 35 days; means±S.E.
Experimental: (§2) Male nude mice were implanted s.c. with 3 mm^3 pieces of PC-3 human hormone-independent prostate cancer tissue on both flanks. When tumors reached a volume of approx. 50 mm^3, the mice were divided into 4 experimental groups with 8 to 10 animals in each group and received single daily injections for 35 days as follows: 1. Control (vehicle solution); 2. JMR-132 (10 μg/day s.c.); 3. Peptide 1109 (10 μg/day s.c.); 4. Peptide 11111 (10 μg/day s.c.); Tumor volumes were measured once a week. The experiment was ended on day 35 by sacrificing the mice under Isoflurane anesthesia. Resulting tumors were cleaned, weighed, and snap-frozen until further analyses. Statistical analyses of the measurement results were done by two-tailed t-test, p<0.05 being considered significant. Data are presented as the means±S.E.

[7] = tested on: PC-3 human hormone-independent prostate cancer; assay: PC-3 human prostate cancer xenografts in nude mice, Experiment 2; format: in vivo; conditions: for Inhibition (%): tumor growth after 2 weeks
Experimental: as §2
Experiment 2 was similar to Experiment 1. Experiment 2 was started when PC-3 tumors had grown to approximately 50 mm^3 in volume. At this time, the animals were divided into 5 experimental groups with 8 animals in each group, and received single daily injections for 14 days as follows: 1. Control (vehicle solution); 2. JMR-132 (10 μg/day s.c.); 3. Peptide 1109 (5 μg/day s.c.); 4. Peptide 11109 (5 μg/day s.c.); 5. Peptide 11109 (2 μg/day s.c.). Further details of Experiment 2 are the same as for Experiment 1

[8] = tested on: Human ovarian cancer SKOV3 cells; assay: SKOV3 ovarian cancer xenografts in nude mice; format: in vivo; conditions: 5 μg/day s.c.
From the text: Human ovarian cancer SKOV3 cells growing exponentially were implanted info five female nude mice by subcutaneous (s.c.) injection of 10^7 cells in both flanks. Tumors That resulted after approximately 4 weeks in donor animals were then aseptically dissected and mechanically minced. Three mm^3 pieces of tumor tissue were transplanted subcutaneously into experimental animals with a trocar needle. When tumors reached an appropriate size (approximately 50 mm^3), mice were randomly divided into […]. The first was the control group, the second group was treated with daily s.c. injections of 5 μg P-11313, the third group was treated with daily s.c. injections of 5 μg P-11604, the fourth group was treated with daily s.c. injections of 5 μg P-11610. Tumor volume (length×width×height×0.5236) was measured every week and mean tumor volumes of each group were compared by Student's t-test. The study lasted 49 days. One week after end of treatment, mice were killed under anesthesia, tumors were snap frozen and stored at −70° C.

[PhAc^0-Tyr^1, D-Arg^2, Cpa^6, Ala^8, Har^9, Tyr(Me)^10, His^11, Orn^12, Abu^15, His^20, Orn^21, Nle^27, D-Arg^28, Har^29-Ada^30]hGH-RH(1-29)NH2 [Peptide 11457]
Tumor weights ([1]; end of experiment day 82): 76 ± 166 mg | Tumor growth from day 1 to day 82 (%) ([1]; means±S.E.): 740 ± 1220 % | Tumor volume on day 82 (mm^3) ([1]; means±S.E.): 262 ± 103* mm^3 | Effect on the growth of Panc-1 human pancreatic cancers ([1]; observed for at least 82 days): powerfully inhibited the growth of Panc-1 human pancreatic cancers | Tumor growth inhibition after 4 weeks (%) [2]: 85.98%

Tyr-Ala-Asp-Ala-lle^5-Phe-Thr-Asn-Ser-Tyr^10-Arg-Lys-Val-Leu-Gly^15-Gln-Leu-Ser-Ala-Arg^20-Lys-Leu-Leu-Gln-Asp^25-Ile-Met-Ser-Arg^29-NH2 [GH-RH(1-29)]
Potency relative to native GH-RH [3]: ≥ 50%

[(Ac-Amc)^0-Tyr^1, D-Arg^2, Cpa^6, (Me-Ala)^8, Har^9, Tyr(Me)^10, His^11, Abu^15, His^20, Nle^27, D-Arg^28, Har^29]hGH-RH(1-29)NH2 [Peptide 11408]
Tumor growth after 4 weeks (%) ([4]; 28 days): 3998 ± 1113% | Inhibition (%) [4]: 49.35% | Tumor growth inhibition after 4 weeks (%) [2]: 63.61%

[(Ac-Ada)^0-Tyr^1, D-Arg^2, Cpa^6, Ala^8, Har^9, Tyr(Me)^10, His^11, Abu^15, His^20, Nle^27, D-Arg^28, Har^29]hGH-RH(1-29)NH2 [Peptide 11111]
Tumor growth after 4 weeks (%) [5]: 2005 ± 541% | Tumor growth after 5 weeks (%) [6]: 1215 ± 243%

[Fer^0-Tyr^1, D-Arg^2, Cpa^6, Ala^8, Har^9, Tyr(Me)^10, His^11, Abu^15, His^20, Nle^27, D-Arg^28, Har^29]hGH-RH(1-29)NH2 [Peptide 11113]
Tumor growth after 4 weeks (%) ([4]; 28 days): 6790 ± 3340% | Inhibition (%) [4]: 13.98% | Tumor growth inhibition after 4 weeks (%) [2]: 29.37%

[Dca^0-Tyr^1, D-Arg^2, Cpa^6, Ala^8, Har^9, Tyr(Me)^10, His^11, Abu^15, His^20, Nle^27, D-Arg^28, Har^29]hGH-RH(1-29)NH2 [Peptide 11109]
Tumor growth after 2 weeks (%) ([7]; 2 μg/day s.c., 14 days): 318% | Tumor growth after 2 weeks (%) ([7]; 5 μg/day s.c., 14 days): 217% | Inhibition of PC-3 tumor growth compared with reference peptide JMR-132 ([7]; Peptide 1109 5 μg/day, Peptide 11109 5 and 2 μg/day, JMR-132 10 μg/day, 14 days): inhibited the growth of PC-3 tumors more potently than reference peptide JMR-132 | Inhibition (%) ([7]; 2 μg/day s.c.): 55.55% | Inhibition (%) ([7]; 5 μg/day s.c.): 69.68% | Effect on the growth of H-460 lung cancers in vivo ([4]; 28 days): had no effect | Tumor growth after 4 weeks (%) ([4]; 28 days): 7890 ± 4127% | Inhibition (%) [4]: 0.05%

[(Ac-Ada)^0-Tyr^1, D-Arg^2, Cpa^6, Ala^8, Har^9, Tyr(Me)^10, His^11, Orn^12, Abu^15, His^20, Orn^21, Nle^27, D-Arg^28, Har^29-Ada^30]hGH-RH(1-29)NH2 [Peptide 11469]
Tumor growth after 4 weeks (%) ([4]; 28 days): 4810 ± 1977% | Inhibition (%) [4]: 39.06% | Tumor growth inhibition after 4 weeks (%) [2]: 78.07%

[(Ac-Amc)^0-Tyr^1, D-Arg^2, Cpa^6, Ala^8, Har^9, Tyr(Me)^10, His^11, Orn^12, Abu^15, His^20, Nle^27, D-Arg^28, Har^29-Agm^30]hGH-RH(1-29) [Peptide 11313]
TU growth (%) ([8]; day 0 (baseline)): 100% | TU growth (%) ([8]; day 7): 147.84% | TU inhibition (%) ([8]; day 7): 31.04% | TU growth (%) ([8]; day 14): 140% | TU inhibition (%) ([8]; day 14): 50.04% | TU growth (%) ([8]; day 21): 196.6% | TU inhibition (%) ([8]; day 21): 63.83% | TU growth (%) ([8]; day 28): 249.65% | TU inhibition (%) ([8]; day 28): 70.35% | TU growth (%) ([8]; day 35): 201.5% | TU inhibition (%) ([8]; day 35): 77.43% | TU growth (%) ([8]; day 42): 274.05% | TU inhibition (%) ([8]; day 42): 77.83% | TU growth (%) ([8]; day 49): 328.63% | TU inhibition (%) ([8]; day 49): 74.16% | Tumor growth after 4 weeks (%) ([4]; 28 days): 3091 ± 1215% | Inhibition (%) [4]: 60.84% | Tumor growth inhibition after 4 weeks (%) [2]: 78.20%
